Experimental data reported in US11851418B2, “Heteroaromatic carboxamide derivatives as plasma kallikrein inhibitors” (Boehringer Ingelheim International GmbH, priority 2020, dated 2023).

Assays:
Type in all cases: biochemical
[1] = biological target: T1, PKK in kaolin activated human platelet poor plasma (Homo sapiens, UniProt P03952); test: Inhibition of PKK in kaolin activated human PPP; details: kaolin (25, 75, 250, 750 μg/mL) activated human PPP, global fit
T1 construct: Platelet poor plasma (PPP) obtained from human wholeblood; from tissue
Method: Platelet poor plasma (PPP) obtained from human wholeblood, anticoagulated with Na-Citrate, is incubated with various concentrations of the test compound together with either 25, 75, 250, or 750 μg/mL kaolin in assay buffer for 20 min at 37° C. such that for each kaolin dose used a concentration response is obtained for the test compound.

[2] = biological target: T2, Human PKK (Homo sapiens, UniProt P03952); test: Inhibition of PKK using an endpoint assay; details: fluorogenic substrate H-Pro-Phe-Arg-AMC, 1 h at room temperature
T2 construct: purchased Enzyme Research Laboratories
Method: (§1) The ability of compounds of formula (I) to inhibit plasma kallikrein (PKK), Factor XIIa (FXIIa), Factor XIa (FXIa), Factor Xa (FXa), Factor IIa (alpha-thrombin; FIIa), plasmin, trypsin, tissue kallikrein 1 (TK1), Factor Vila (FVIIa), or FVIIa complexed with Tissue Factor, phospholipids and CaCl2 (FVIIa/TF/PL/CaCl2) is determined using the following biochemical assays in assay buffer (100 mM Tris, 150 mM NaCL, adjusted to a pH of 7.8 with HCl, and containing 0.1% (w/v) BSA and 0.05% (v/v) Tween20) in the presence of 1% (v/v) DMSO:
Subsequently, PPACK 11 (Calbiochem) is added as a stop solution to achieve a final concentration of 1 μM and fluorescence is measured using an Envision Reader (PerkinElmer) with the wavelength excitation setting of 355 nm and the wavelength emission setting of 460 nm.

[3] = biological target: T3, human TK1 (Homo sapiens, UniProt P06870); test: Inhibition of TK1 (Ki); details: activated human TK1, substrate H-Pro-Phe-Arg-AMC, 24° C.; Ki from IC50 corrected for KM
T3 construct: purchased R&D Systems
Method: as §1
Prior to the assay, human TK1 (R&D Systems) is activated by incubation with human trypsin (Calbiochem) in a 1:10,000 ratio for 15 min at 37° C. For assaying TK1 inhibitory activity, activated TK1 (31.25 nM or 1 U/mL) is incubated at 24° C. with 0.1 mM fluorogenic substrate H-Pro-Phe-Arg-AMC (I1295 from Bachem) and various concentrations of the test compound in assay buffer. Measurements are performed in a kinetic interval every 2nd minute for 16 min using a Spectramax M5 (Molecular Devices) with the following settings of the wavelength excitation of 350 nm and wavelength emission of 450 nm.
The pIC50 values are then fitted using a four-parametric fitting procedure using GraphPad Prism (version 6; GraphPad Software, Inc.). […]

T1 sequence (P03952 391-638 limits assumed): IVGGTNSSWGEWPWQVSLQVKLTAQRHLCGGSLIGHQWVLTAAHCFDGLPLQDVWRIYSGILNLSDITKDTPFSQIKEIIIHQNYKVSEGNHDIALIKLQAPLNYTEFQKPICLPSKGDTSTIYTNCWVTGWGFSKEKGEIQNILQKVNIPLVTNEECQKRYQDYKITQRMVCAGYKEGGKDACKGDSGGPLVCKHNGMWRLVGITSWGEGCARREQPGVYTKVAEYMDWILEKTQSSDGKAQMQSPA
T1 sequence (P03952 20-390 partner limits assumed): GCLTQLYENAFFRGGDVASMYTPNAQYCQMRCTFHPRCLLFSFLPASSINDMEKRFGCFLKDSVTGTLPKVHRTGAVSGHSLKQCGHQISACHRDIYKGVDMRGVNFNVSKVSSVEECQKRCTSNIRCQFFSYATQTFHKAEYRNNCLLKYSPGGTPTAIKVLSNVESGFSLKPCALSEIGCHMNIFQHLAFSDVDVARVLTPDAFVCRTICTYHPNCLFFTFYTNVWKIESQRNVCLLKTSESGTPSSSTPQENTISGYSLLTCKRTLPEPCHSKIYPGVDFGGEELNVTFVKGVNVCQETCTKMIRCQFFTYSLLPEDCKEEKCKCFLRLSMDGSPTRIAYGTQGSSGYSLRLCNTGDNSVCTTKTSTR
T2 sequence (P03952 391-638 limits assumed): as the sequence (P03952 391-638 limits assumed) above
T2 sequence (P03952 20-390 partner limits assumed): as the sequence (P03952 20-390 partner limits assumed) above
T3 sequence (P06870 25-262): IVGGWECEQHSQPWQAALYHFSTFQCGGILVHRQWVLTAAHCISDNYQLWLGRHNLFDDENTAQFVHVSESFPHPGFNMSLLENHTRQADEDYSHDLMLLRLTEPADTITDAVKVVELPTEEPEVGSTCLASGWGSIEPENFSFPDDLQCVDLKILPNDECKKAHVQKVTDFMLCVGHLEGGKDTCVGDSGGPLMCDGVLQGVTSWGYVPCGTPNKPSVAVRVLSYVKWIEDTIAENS

| Compound | IC90 [1] [nM] | IC50 [2] [nM] | Ki [3] [nM] |
| --- | --- | --- | --- |
| Cc1[nH]nc2c1CC[C@H]2NC(=O)c1cnn(Cc2cnc(N3CC4CC4C3)nc2C(F)F)c1 (stereo partly drawn) [Example 2, 1-[(2-{3-Azabicyclo[3.1.0]hexan-3-yl}-4-(difluoromethyl)-pyrimidin-5-yl)methyl]-N-[(6R)-3-methyl-2H,4H,5H,6H-cyclopenta[c]pyrazol-6-yl]-1H-pyrazole-4-carboxamide] | 499 | 1.8 |  |
| Cc1[nH]nc2c1CC[C@H]2NC(=O)c1cn(Cc2cnc(N3CC4CC4C3)nc2C(F)F)cn1 (stereo partly drawn) [Example 8, 1-[(2-{3-Azabicyclo[3.1.0]hexan-3-yl}-4-(difluoromethyl)-pyrimidin-5-yl)methyl]-N-[(6R)-3-methyl-2H,4H,5H,6H-cyclopenta[c]pyrazol-6-yl]-1H-imidazole-4-carboxamide] | 305 | 2.1 |  |
| Cc1[nH]nc2c1CC[C@H]2NC(=O)c1cn(Cc2ccc(N3CC4CC4C3)nc2C(F)F)nn1 (stereo partly drawn) [Example 3, 1-[(6-{3-Azabicyclo[3.1.0]hexan-3-yl}-2-(difluoromethyl)-pyridin-3-yl)methyl]-N-[(6R)-3-methyl-2H,4H,5H,6H-cyclo-penta[c]pyrazol-6-yl]-1H-1,2,3-triazole-4-carboxamide] | 486 | 0.9 |  |
| Cc1[nH]nc2c1CC[C@H]2NC(=O)c1cnn(Cc2cnc(N3CC4CC4C3)cc2C(F)(F)F)c1 (stereo partly drawn) [Example 12, 1-[(6-{3-Azabicyclo[3.1.0]hexan-3-yl}-4-(trifluoromethyl)-pyridin-3-yl)methyl]-N-[(6R)-3-methyl-2H,4H,5H,6H-cyclopenta[c]pyrazol-6-yl]-1H-pyrazole-4-carboxamide] |  | 2.6 |  |
| Cc1[nH]nc2c1CC[C@H]2NC(=O)c1cn(Cc2cnc(N3CC4CC4C3)cc2C(F)(F)F)cn1 (stereo partly drawn) [Example 9, 1-[(6-{3-Azabicyclo[3.1.0]hexan-3-yl}-4-(trifluoromethyl)-pyridin-3-yl)methyl]-N-[(6R)-3-methyl-2H,4H,5H,6H-cyclopenta[c]pyrazol-6-yl]-1H-imidazole-4-carboxamide] | 539 | 1.8 | > 10000 |
| Cc1[nH]nc2c1CC[C@H]2NC(=O)c1cnn(Cc2ccc(N3CC4CC4C3)nc2C(F)(F)F)c1 (stereo partly drawn) [Example 13, 1-[(6-{3-Azabicyclo[3.1.0]hexan-3-yl}-2-(trifluoromethyl)pyridin-3-yl)methyl]-N-[(6R)-3-methyl-2H,4H,5H,6H-cyclopenta[c]pyrazol-6-yl]-1H-pyrazole-4-carboxamide] | 746 | 1.9 | > 10000 |
| Cc1[nH]nc2c1CC[C@H]2NC(=O)c1cn(Cc2ccc(N3CC4C(C3)C4(F)F)nc2C(F)F)cn1 (stereo partly drawn) [Example 11, 1-[(6-{6,6-Difluoro-3-azabicyclo[3.1.0]hexan-3-yl}-2-(difluoromethyl)pyridin-3-yl)methyl]-N-[(6R)-3-methyl-2H,4H,5H,6H-cyclopenta-[c]pyrazol-6-yl]-1H-imidazole-4-carboxamide] | 236 |  |  |
| Cc1[nH]nc2c1CC[C@H]2NC(=O)c1cn(Cc2ccc(N3CC4(CC4)C3)nc2C(F)F)nn1 [Example 4, 1-[(6-{5-Azaspiro[2.3]hexan-5-yl}-2-(difluoromethyl)pyridin-3-yl)methyl]-N-[(6R)-3-methyl-2H,4H,5H,6H-cydopenta[c]-pyrazol-6-yl]-1H-1,2,3-triazole-4-carboxamide] | 122 |  |  |
| Cc1[nH]nc2c1CC[C@H]2NC(=O)c1cnn(Cc2ccc(N3CC4CC4C3)nc2C(F)F)c1 (stereo partly drawn) [Example 7, 1-[(6-{3-Azabicyclo[3.1.0]hexan-3-yl}-2-(difluoromethyl)-pyridin-3-yl)methyl]-N-[(6R)-3-methyl-2H,4H,5H,6H-cyclopenta[c]pyrazol-6-yl]-1H-pyrazole-4-carboxamide] | 195 |  |  |
| Cc1[nH]nc2c1CC[C@H]2NC(=O)c1cnn(Cc2ccc(N3CC4C(C3)C4(F)F)nc2C(F)F)c1 (stereo partly drawn) [Example 10, 1-[(6-{6,6-Difluoro-3-azabicyclo[3.1.0]hexan-3-yl}-2-(difluoromethyl)pyridin-3-yl)methyl]-N-[(6R)-3-methyl-2H,4H,5H,6H-cyclopenta-[c]pyrazol-6-yl]-1H-pyrazole-4-carboxamide] | 242 |  |  |
| Cc1[nH]nc2c1CC[C@H]2NC(=O)c1cnn(Cc2ccc(N3CC4(CC4)C3)nc2C(F)F)c1 [Example 1, 1-[(6-{5-Azaspiro[2.3]hexan-5-yl}-2-(difluoromethyl)pyridin-3-yl)methyl]-N-[(6R)-3-methyl-2H,4H,5H,6H-cyclopenta[c]pyrazol-6-yl]-1H-pyrazole-4-carboxamide] | 182 | 0.8 |  |
| Cc1[nH]nc2c1CC[C@H]2NC(=O)c1cn(Cc2ccc(N3CC4(CC4)C3)nc2C(F)F)cn1 [Example 5, 1-[(6-{5-Azaspiro[2.3]hexan-5-yl}-2-(difluoromethyl)-pyridin-3-yl)methyl]-N-[(6R)-3-methyl-2H,4H,5H,6H-cyclopenta[c]pyrazol-6-yl]-1H-imidazole-4-carboxamide] | 149 |  |  |
| Cc1[nH]nc2c1CC[C@H]2NC(=O)c1cn(Cc2ccc(N3CC4CC4C3)nc2C(F)F)cn1 (stereo partly drawn) [Example 6, 1-[(6-{3-Azabicyclo[3.1.0]hexan-3-yl}-2-(difluoromethyl)-pyridin-3-yl)methyl]-N-[(6R)-3-methyl-2H,4H,5H,6H-cyclopenta[c]pyrazol-6-yl]-1H-imidazole-4-carboxamide] | 293 |  |  |
